≈ marks a conversion by molar mass, not a printed value.
Columns and labels:
Assay type in all cases: physicochemical
[1] = Solubility in pharmaceutical solvents (Table 3); conditions: for calculated fluconazole concentration: value within brackets
From the text: The values within brackets in Table 3 correspond to the calculated fluconazole concentrations taking into account the molecular weights of the relevant fosfluconazole prodrug and fluconazole itself.

[2] = Chemical stability in pharmaceutical solvents (weight % remaining in solution, LCMS)
Procedure: (§1) Table 4 provides the chemical stability data in some pharmaceutical solvents, expressed as the weight percentage (% w/w) of the final fosfluconazole derivative produced and characterized in example 1 that remained in solution after a certain period of time. The test was carried out twice, and the remaining weight % was determined by Liquid Chromatography-Mass Spectrometry (LCMS).
as §1, with “5” for “4”, “solvents at 25° C.,” for “solvents,”, “2” for “1”
as §1, with “6” for “4”, “solvents at 25° C.,” for “solvents,”, “3” for “1”
as §1, with “7” for “4”, “4” for “1”
as §1, with “8” for “4”, “5” for “1”
as §1, with “9” for “4”, “6” for “1”
as §1, with “10” for “4”, “14” for “1”

[3] = Solubility of fosfluconazole derivatives in pharmaceutical solvents (Table 2); conditions: for solubility at 24 h: thermodynamic from solid
Procedure: The solubility determination method used was as follows: a suspension of 6 mg of the tested fosfluconazole derivative in 500 μl of the applicable pharmaceutical solvent was rotatively shaken for 24 hours at 800 rpm at 25° C. The saturated fosfluconazole derivative solution was filtered (0.45 μm) and 150 μl of the filtrate was diluted in dimethylsulfoxide (50 μl DMSO). This solution was assayed, each assay being carried out in three-fold, by measurement with Liquid Chromatography-Mass Spectrometry (LCMS, 1 μl and 10 μl injection). Standards were prepared by dissolving the corresponding fosfluconazole derivative in DMSO (1 mg/ml). To determine the solubility, four aliquots (0.5, 1, 2, 4 μl) of the standard solution were injected using the same LCMS conditions as for the above exemplary samples.

[4] = H2O/Kleptose HPB (60/40), 4 hours
[5] = H2O/Kleptose HPB (60/40), 1 day
[6] = H2O/Kleptose HPB (60/40), 2 days
[7] = H2O/Kleptose HPB (60/40), 7 days
[8] = H2O/Kleptose HPB (60/40), 14 days
[9] = aqueous with cosolvent or surfactant or cyclodextrin, H2O/Cremophor RH 40 (80/20), 25° C.
[10] = aqueous with cosolvent or surfactant or cyclodextrin, H2O/Kleptose HPB (60/40), 25° C.
[11] = aqueous with cosolvent or surfactant or cyclodextrin, H2O/Vitamin E TPGS (90/10), 25° C.
[12] = aqueous with cosolvent or surfactant or cyclodextrin, H2O/polysorbate 80 (80/20), 25° C.
[13] = oil or lipid, Miglyol 812, 25° C.
[14] = organic solvent or mixture, PEG 400, 25° C.
[15] = water (pH 2), aqueous buffer, H2O (pH = 2), 25° C.
[16] = water (pH 7), aqueous buffer, H2O (pH = 7), 25° C.
[17] = water (pH 10), aqueous buffer, H2O (pH = 10), 25° C.

Compound: 2-((2-(2,4-difluorophenyl)-1,3-di(1H-1,2,4-triazol-1-yl)propan-2-yloxy)(ethoxy)phosphoryloxy)ethyl (3S,8R,9S,10R,13S,14S,17R)-10,13,17-trimethyl-17-((R)-6-methylheptan-2-yl)-2,3,4,7,8,9,10,11,12,13,14,15,16,17-tetradecahydro-1H-cyclopenta[a]phenanthren-3-yl succinate [Example 6]
- solubility ([1]; Benzylalcohol): ≥ 226.7
- calculated fluconazole concentration ([1]; Benzylalcohol): (74.8)
- solubility ([1]; Benzylbenzoate): ≥ 226.7
- calculated fluconazole concentration ([1]; Benzylbenzoate): (74.8)
- solubility ([1]; Ethylbenzoate): ≥ 226.7
- calculated fluconazole concentration ([1]; Ethylbenzoate): (74.8)
- solubility ([1]; Miglyol 812): 200.0
- calculated fluconazole concentration ([1]; Miglyol 812): (66.0)
- solubility ([1]; N-methylpyrrolidone): ≥ 226.7
- calculated fluconazole concentration ([1]; N-methylpyrrolidone): (74.8)
- solubility ([1]; Sesame oil (LCT)): 23.3
- calculated fluconazole concentration ([1]; Sesame oil (LCT)): (7.7)
- weight percentage that remained in solution ([2]; H2O (pH = 2), 2 hours): 98.4 % w/w
- weight percentage that remained in solution ([2]; H2O (pH = 2), 4 hours): 44.0 % w/w
- weight percentage that remained in solution ([2]; H2O (pH = 2), 1 day): 55.3 % w/w
- weight percentage that remained in solution ([2]; H2O (pH = 2), 2 days): 46.4 % w/w
- weight percentage that remained in solution ([2]; H2O (pH = 2), 7 days): 0.0 % w/w
- weight percentage that remained in solution ([2]; H2O (pH = 2), 14 days): 0.0 % w/w
- weight percentage that remained in solution ([2]; H2O (pH = 7), 2 hours): 100.0 % w/w
- weight percentage that remained in solution ([2]; H2O (pH = 7), 4 hours): 100.0 % w/w
- weight percentage that remained in solution ([2]; H2O (pH = 7), 1 day): 100.0 % w/w
- weight percentage that remained in solution ([2]; H2O (pH = 7), 2 days): 100.0 % w/w
- weight percentage that remained in solution ([2]; H2O (pH = 7), 7 days): 100.0 % w/w
- weight percentage that remained in solution ([2]; H2O (pH = 7), 14 days): 100.0 % w/w
- weight percentage that remained in solution ([2]; H2O (pH = 10), 2 hours): 100.0 % w/w
- weight percentage that remained in solution ([2]; H2O (pH = 10), 4 hours): 100.0 % w/w
- weight percentage that remained in solution ([2]; H2O (pH = 10), 1 day): 100.0 % w/w
- weight percentage that remained in solution ([2]; H2O (pH = 10), 2 days): 100.0 % w/w
- weight percentage that remained in solution ([2]; H2O (pH = 10), 7 days): 100.0 % w/w
- weight percentage that remained in solution ([2]; H2O (pH = 10), 14 days): 100.0 % w/w
- weight percentage that remained in solution ([2]; H2O/Kleptose HPB (60/40), 2 hours): 86.7 % w/w
- weight percentage that remained in solution [2, 4]: 86.7 % w/w
- weight percentage that remained in solution [2, 5]: 86.7 % w/w
- weight percentage that remained in solution [2, 6]: 86.7 % w/w
- weight percentage that remained in solution [2, 7]: 86.7 % w/w
- weight percentage that remained in solution [2, 8]: 86.7 % w/w
- weight percentage that remained in solution ([2]; PEG 400, 2 hours): 100.0 % w/w
- weight percentage that remained in solution ([2]; PEG 400, 4 hours): 100.0 % w/w
- weight percentage that remained in solution ([2]; PEG 400, 1 day): 100.0 % w/w
- weight percentage that remained in solution ([2]; PEG 400, 2 days): 100.0 % w/w
- weight percentage that remained in solution ([2]; PEG 400, 7 days): 100.0 % w/w
- weight percentage that remained in solution ([2]; PEG 400, 14 days): 100.0 % w/w
- solubility ([3]; H2O (pH = 2), 25° C.): <1 µg/mL
- solubility ([3]; H2O (pH = 7), 25° C.): <1 µg/mL
- solubility ([3]; H2O (pH = 10), 25° C.): <1 µg/mL
- solubility ([3]; H2O/Cremophor RH 40 (80/20), 25° C.): <1 µg/mL
- solubility ([3]; H2O/Kleptose HPB (60/40), 25° C.): 600 µg/mL
- solubility ([3]; H2O/Vitamin E TPGS (90/10), 25° C.): 6200 µg/mL
- solubility ([3]; H2O/polysorbate 80 (80/20), 25° C.): >10000 µg/mL
- solubility ([3]; Miglyol 812, 25° C.): >10000 µg/mL
- solubility ([3]; PEG 400, 25° C.): >10000 µg/mL

Compound: CCOP(=O)(O[C@H]1CC[C@@]2(C)C(=CC[C@H]3[C@@H]4CC[C@H]([C@H](C)CCCC(C)C)[C@@]4(C)CC[C@@H]32)C1)OC(Cn1cncn1)(Cn1cncn1)c1ccc(F)cc1F (stereo partly shown) [Example 5]
- solubility ([1]; Benzylalcohol, organic solvent or mixture, read-out: solubility): ≥ 227000 µg/mL
- solubility ([1]; Benzylbenzoate, organic solvent or mixture, read-out: solubility): 90000 µg/mL (≈ 115 mM)
- solubility ([1]; Ethylbenzoate, organic solvent or mixture, read-out: solubility): 133000 µg/mL (≈ 170 mM)
- solubility ([1]; Miglyol 812, oil or lipid, read-out: solubility): 12000 µg/mL (≈ 15.3 mM)
- solubility ([1]; N-methylpyrrolidone, organic solvent or mixture, read-out: solubility): ≥ 227000 µg/mL
- solubility ([1]; Sesame oil (LCT), oil or lipid, read-out: solubility): 10000 µg/mL (≈ 12.8 mM)
- solubility at 24 h [3, 9]: 900 µg/mL (≈ 1.15 mM)
- solubility at 24 h [3, 10]: 500 µg/mL (≈ 0.639 mM)
- solubility at 24 h [3, 11]: 1400 µg/mL (≈ 1.79 mM)
- solubility at 24 h [3, 12]: 4500 µg/mL (≈ 5.75 mM)
- solubility at 24 h [3, 13]: 9700 µg/mL (≈ 12.4 mM)
- solubility at 24 h [3, 14]: 4100 µg/mL (≈ 5.24 mM)
- solubility at 24 h [3, 15]: < 1 µg/mL
- solubility at 24 h [3, 16]: < 1 µg/mL
- solubility at 24 h [3, 17]: < 1 µg/mL

Compound: CCCCCCCCCOP(=O)([O-])OC(Cn1cncn1)(Cn1cncn1)c1ccc(F)cc1F.[Na+] [Example 14, sodium 2-(2,4-difluorophenyl)-1,3-di(1H-1,2,4-triazol-1-yl)propan-2-yl nonyl phosphate]
- weight percentage that remained in solution ([2]; H2O (pH = 2), 4 hours): 99.0 % w/w
- weight percentage that remained in solution ([2]; H2O (pH = 2), 1 day): 99.1 % w/w
- weight percentage that remained in solution ([2]; H2O (pH = 2), 2 days): 99.2 % w/w
- weight percentage that remained in solution ([2]; H2O (pH = 2), 7 days): 99.2 % w/w
- weight percentage that remained in solution ([2]; H2O (pH = 2), 14 days): 99.6 % w/w
- weight percentage that remained in solution ([2]; H2O (pH = 7), 4 hours): 99.1 % w/w
- weight percentage that remained in solution ([2]; H2O (pH = 7), 1 day): 99.3 % w/w
- weight percentage that remained in solution ([2]; H2O (pH = 7), 2 days): 99.2 % w/w
- weight percentage that remained in solution ([2]; H2O (pH = 7), 7 days): 99.2 % w/w
- weight percentage that remained in solution ([2]; H2O (pH = 7), 14 days): 99.4 % w/w
- weight percentage that remained in solution ([2]; H2O (pH = 10), 4 hours): 99.3 % w/w
- weight percentage that remained in solution ([2]; H2O (pH = 10), 1 day): 99.3 % w/w
- weight percentage that remained in solution ([2]; H2O (pH = 10), 2 days): 99.4 % w/w
- weight percentage that remained in solution ([2]; H2O (pH = 10), 7 days): 99.3 % w/w
- weight percentage that remained in solution ([2]; H2O (pH = 10), 14 days): 99.9 % w/w
- weight percentage that remained in solution [2, 4]: 99.5 % w/w
- weight percentage that remained in solution [2, 5]: 99.3 % w/w
- weight percentage that remained in solution [2, 6]: 99.2 % w/w
- weight percentage that remained in solution [2, 7]: 99.3 % w/w
- weight percentage that remained in solution [2, 8]: 100.0 % w/w
- weight percentage that remained in solution ([2]; PEG 400, 4 hours): 99.3 % w/w
- weight percentage that remained in solution ([2]; PEG 400, 1 day): 99.3 % w/w
- weight percentage that remained in solution ([2]; PEG 400, 2 days): 99.4 % w/w
- weight percentage that remained in solution ([2]; PEG 400, 7 days): 99.4 % w/w
- weight percentage that remained in solution ([2]; PEG 400, 14 days): 100.0 % w/w
- solubility at 24 h [3, 9]: > 10000 µg/mL
- solubility at 24 h [3, 10]: > 10000 µg/mL
- solubility at 24 h [3, 11]: > 10000 µg/mL
- solubility at 24 h [3, 12]: > 10000 µg/mL
- solubility at 24 h [3, 13]: 1200 µg/mL
- solubility at 24 h [3, 14]: > 10000 µg/mL
- solubility at 24 h [3, 15]: > 10000 µg/mL
- solubility at 24 h [3, 16]: > 10000 µg/mL
- solubility at 24 h [3, 17]: > 10000 µg/mL

Source: US20120010173A1 (SEPS PHARMA N.V., priority 2009, published 2012)
